Consider 1 molecule from ChEMBL document CHEMBL5620370, “1,3-Thiazole derivatives as privileged structures for anti-Trypanosoma cruzi activity: Rational design, synthesis, in silico and in vitro studies” (Eur J Med Chem, 2023).

Data set [1] concerns Trypanosoma cruzi. Kind of data set: Induction of mitochondrial membrane potential loss in Trypanosoma cruzi Y strain trypomastigotes at 1 times IC50 incubated for 24 hrs by Rhodamine 123 staining based flow cytometry. The format is organism-based.
In data set [2] the test system is Trypanosoma cruzi. Kind of data set: Induction of apoptosis in Trypanosoma cruzi Y strain trypomastigotes assessed as early apoptosis at 2 times IC50 incubated for 24 hrs by Annexin V-FITC/7AAD staining based flow cytometry. The format is functional, organism-based.
Data set [3] can be described thus: Cytotoxicity against mouse RAW264.7 cells assessed as inhibition of cell growth incubated for 72 hrs by MTT assay. Type of data set: toxicity, cell-based. (In general: Formazan colour is commonly taken as a measure of viable cells.)
Data set [4] is described as follows: Selectivity index, ratio of CC50 for cytotoxicity against mouse RAW264.7 cells to IC50 for antitrypanosomal activity against Trypanosoma cruzi Dm28 epimastigotes assessed as inhibition of parasite growth. Type of data set: toxicity, cell-based. As to conditions: read-out: Ratio CC50/IC50.
Data set [5] relates to Trypanosoma cruzi. Kind of data set: Induction of apoptosis in Trypanosoma cruzi Y strain trypomastigotes assessed as necrosis at 9.64 uM incubated for 24 hrs by Annexin V-FITC/7AAD staining based flow cytometry. The format is functional, organism-based. In general terms: A flow cytometer gives signals particle by particle.
Data set [6] concerns Trypanosoma cruzi. Kind of data set: Induction of apoptosis in Trypanosoma cruzi Y strain trypomastigotes assessed as late apoptosis at 1 times IC50 incubated for 24 hrs by Annexin V-FITC/7AAD staining based flow cytometry. The format is functional, organism-based.
Data set [7] has as its system Trypanosoma cruzi. As to the kind of experiment: Antitrypanosomal activity against Trypanosoma cruzi Dm28 epimastigotes assessed as inhibition of parasite growth incubated for 96 hrs by Neubauer chamber based analysis. Type of data set: functional, organism-based. Particulars: Dm28, 96 h.
Data set [8] concerns Trypanosoma cruzi. Kind of data set: Induction of apoptosis in Trypanosoma cruzi Y strain trypomastigotes assessed as early apoptosis at 1 times IC50 incubated for 24 hrs by Annexin V-FITC/7AAD staining based flow cytometry. The format is functional, organism-based.
Data set [9] relates to Trypanosoma cruzi. Kind of data set: Induction of apoptosis in Trypanosoma cruzi Y strain trypomastigotes assessed as necrosis at 1 times IC50 incubated for 24 hrs by Annexin V-FITC/7AAD staining based flow cytometry. The format is functional, organism-based.
Data set [10] deals with Trypanosoma cruzi. As to the kind of experiment: Induction of mitochondrial membrane potential loss in Trypanosoma cruzi Y strain trypomastigotes at 2 times IC50 incubated for 24 hrs by Rhodamine 123 staining based flow cytometry. The format is organism-based.
Data set [11] relates to Trypanosoma cruzi. As to the kind of experiment: Induction of apoptosis in Trypanosoma cruzi Y strain trypomastigotes assessed as fold increase in late apoptosis incubated for 24 hrs by Annexin V-FITC/7AAD staining based flow cytometry. The format is functional.
The subject of data set [12] is Trypanosoma cruzi. As to the kind of experiment: Antitrypanosomal activity against Trypanosoma cruzi Y strain trypomastigotes transfected in African green monkey Vero cells assessed as inhibition of parasite growth incubated for 24 hrs by Neubauer chamber based analysis. Type of data set: functional, organism-based.
Data set [13] concerns Trypanosoma cruzi. Kind of data set: Induction of apoptosis in Trypanosoma cruzi Y strain trypomastigotes assessed as late apoptosis at 9.64 uM incubated for 24 hrs by Annexin V-FITC/7AAD staining based flow cytometry. The format is functional, organism-based.
Data set [14] in a line: Selectivity index, ratio of CC50 for cytotoxicity against mouse RAW264.7 cells to IC50 for antitrypanosomal activity against Trypanosoma cruzi Y strain trypomastigotes transfected in African green monkey Vero cells assessed as inhibition of parasite growth. The format is toxicity, cell-based. Particulars: read-out: Ratio CC50/IC50.
Data set [15] can be described thus: Selectivity index, ratio of CC50 for cytotoxicity against mouse RAW264.7 cells to IC50 for antitrypanosomal activity against Trypanosoma cruzi Tulahuen amastigotes transfected in L929 cells assessed as inhibition of parasite growth. The format is toxicity, cell-based. Particulars: read-out: Ratio CC50/IC50.
Data set [16] has as its system Trypanosoma cruzi. As to the kind of experiment: Induction of apoptosis in Trypanosoma cruzi Y strain trypomastigotes assessed as fold increase in early apoptosis incubated for 24 hrs by Annexin V-FITC/7AAD staining based flow cytometry. The format is functional.
For data set [17], the system named is Trypanosoma cruzi. Kind of data set: Induction of DNA damage in Trypanosoma cruzi Y strain trypomastigotes at 2 times IC50 incubated for 24 hrs by acridine orange staining based flow cytometry. The format is functional, organism-based.
Data set [18] deals with Trypanosoma cruzi. As to the kind of experiment: Antitrypanosomal activity against Trypanosoma cruzi Tulahuen amastigotes transfected in L929 cells assessed as inhibition of parasite growth incubated for 96 hrs by CPRG based spectrophotometric analysis. Type of data set: functional, organism-based. As to conditions: L929, 96 h.

pIC50: −log10 of the molar value. Activity calls are given as the source filed them. The rule behind the calls is not given here.

The term CC50 denotes the concentration that lowers cell viability or growth by half. The pIC50 is the negative decadic logarithm of the IC50, by convention in mol/L.

With `C/C(=N\Nc1nc(-c2ccc(Cl)c(Cl)c2)cs1)c1ccc(Cl)cc1Cl`, the outcome with Trypanosoma cruzi [1] and in the data set on Trypanosoma cruzi [10] was inactive. The outcome in the data set on Trypanosoma cruzi [2], in the data set on Trypanosoma cruzi [5], in the data set on Trypanosoma cruzi [6], with Trypanosoma cruzi [8], in the data set with Trypanosoma cruzi [9] and in the data set with Trypanosoma cruzi [13] was Active. Besides, the outcome in the data set with Trypanosoma cruzi [17] was Active. For the same molecule, the CC50 at 72 h in [3] was determined as 97.3 µM. Also, the results for the selectivity ratio in data set [4], in data set [14] and in data set [15] were 15.2, 20.2 and 3.44, respectively. In addition, the results for the negative logarithm of the IC50 (pIC50) in the data set with Trypanosoma cruzi [7], in the data set on Trypanosoma cruzi [12] and in the data set with Trypanosoma cruzi [18] were 5.19, 5.32 and 4.55, respectively. Also, the entries for the “fold change (FC)” value in the data set with Trypanosoma cruzi [11] and in the data set with Trypanosoma cruzi [16] were 4 and 5, respectively.
